In US20050250752A1, “Cembranoids with chemopreventive activity” (priority 2002, published 2005):

What was measured:
[1] = test system: papillomas (mouse skin carcinogenesis induced by DMBA/TPA); experiment: Two-stage mouse skin carcinogenesis model induced by DMBA/TPA; format: in vivo, mouse (female ICR); conditions: topical 85 nm 1 hour before TPA, ICR mice
Experimental: In the two-stage mouse skin carcinogenesis model induced by DMBA/TPA, the animals (specific pathogen-free female ICR, 6 weeks old) were divided into 5 groups, 15 mice each. The back of each mouse was shaved with surgical clippers, and the mice were topically treated with DMBA (100 μg, 390 nmol) in acetone (0.1 ml) as an initiation treatment. For the positive control group, 1 week after initiation with DMBA, mice were promoted by the application with TPA (1 μg, 1.7 nmol) in acetone (0.1 ml) twice a week. The other four groups received a topical application of each of the sarcophine semi-synthetic derivatives (85 nm) 1 hour before application of the tumor promoter. The incidence of papillomas was observed weekly for 20 weeks. The percentage of mice bearing papillomas and the average number of papillomas per mouse were recorded.

Raji cells = experiment: Viability of treated Raji cells (Trypan Blue staining); format: cell-based
Experimental: (§1) The inhibition of EBV-EA activation was assayed using Raji cells (virus non-producer type). The indicator cells (Raji, 1×10^6/ml) were incubated at 37° C. for 48 h in 1 ml of medium containing n-butyric acid (4 mmol), TPA(12-O-tetradecanoylphorbol 13-acetate)(32 pmol=20 ng in 2 μl DMSO) as inducer and various amounts of test compounds in 5 μl DMSO. Smears were made from the cell suspension, and the activated cells, which were stained by EBV-EA positive serum from nasopharygeal carcinoma patients were detected by an indirect immunofluorescence technique. For each compound, assays were performed in triplicate. The average EBV-EA induction of the test compounds was expressed as a relative ratio to the control experiment (100%), which was carried out only with n-butyric acid plus TPA. The viability of treated Raji cells was assayed by the Trypan Blue staining method.

[2] = test system: Epstein-Barr virus early antigen (EBV-EA) of Raji cells induced by tumor promoter (TPA); experiment: Inhibition of EBV-EA activation induced by TPA in Raji cells; format: cell-based; conditions: for EBV-EA induction, percentage relative to the positive control value (100%): TPA 32 pmol, Raji cells, 48 h
Experimental: as §1

[3] = x 1000 mol ratio/TPA (32 nmol/mL)

Structure (SMILES): C/C1=C\CCC2(C)OC2CC/C(C)=C/C=C(/[C@@](C)(O)CO)CC1 (stereo partly drawn) [Compound 11, 7,8-Epoxy-1,3,11-cembratriene-15R(α),16-diol]
- Papilloma Bearer (%) ([1]; week 1 of promotion): 0.0%
- Papillomas/mouse ([1]; week 1 of promotion): 0.0
- Papilloma Bearer (%) ([1]; week 2 of promotion): 0.0%
- Papillomas/mouse ([1]; week 2 of promotion): 0.0
- Papilloma Bearer (%) ([1]; week 3 of promotion): 0.0%
- Papillomas/mouse ([1]; week 3 of promotion): 0.0
- Papilloma Bearer (%) ([1]; week 4 of promotion): 0.0%
- Papillomas/mouse ([1]; week 4 of promotion): 0.0
- Papilloma Bearer (%) ([1]; week 5 of promotion): 0.0%
- Papillomas/mouse ([1]; week 5 of promotion): 0.0
- Papilloma Bearer (%) ([1]; week 6 of promotion): 0.0%
- Papillomas/mouse ([1]; week 6 of promotion): 0.0
- Papilloma Bearer (%) ([1]; week 7 of promotion): 0.0%
- Papillomas/mouse ([1]; week 7 of promotion): 0.0
- Papilloma Bearer (%) ([1]; week 8 of promotion): 13.3%
- Papillomas/mouse ([1]; week 8 of promotion): 0.6
- Papilloma Bearer (%) ([1]; week 9 of promotion): 20.0%
- Papillomas/mouse ([1]; week 9 of promotion): 1.3
- Papilloma Bearer (%) ([1]; week 10 of promotion): 26.6%
- Papillomas/mouse ([1]; week 10 of promotion): 1.6
- Papilloma Bearer (%) ([1]; week 11 of promotion): 40.0%
- Papillomas/mouse ([1]; week 11 of promotion): 1.9
- Papilloma Bearer (%) ([1]; week 12 of promotion): 46.6%
- Papillomas/mouse ([1]; week 12 of promotion): 2.1
- Papilloma Bearer (%) ([1]; week 13 of promotion): 53.3%
- Papillomas/mouse ([1]; week 13 of promotion): 2.4
- Papilloma Bearer (%) ([1]; week 14 of promotion): 53.3%
- Papillomas/mouse ([1]; week 14 of promotion): 2.7
- Papilloma Bearer (%) ([1]; week 15 of promotion): 60.0%
- Papillomas/mouse ([1]; week 15 of promotion): 3.0
- Papilloma Bearer (%) ([1]; week 16 of promotion): 73.3%
- Papillomas/mouse ([1]; week 16 of promotion): 3.4
- Papilloma Bearer (%) ([1]; week 17 of promotion): 80.0%
- Papillomas/mouse ([1]; week 17 of promotion): 3.7
- Papilloma Bearer (%) ([1]; week 18 of promotion): 80.0%
- Papillomas/mouse ([1]; week 18 of promotion): 4.2
- Papilloma Bearer (%) ([1]; week 19 of promotion): 86.6%
- Papillomas/mouse ([1]; week 19 of promotion): 4.7
- Papilloma Bearer (%) ([1]; week 20 of promotion): 86.6%
- Papillomas/mouse ([1]; week 20 of promotion): 5.1

Structure (SMILES): CC1=CC=C([C@@](C)(O)CO)C[C@@H](O)C(C)=CCCC2(C)OC2CC1 (stereo partly drawn) [Compound 13, 7,8-Epoxy-1,3,11-cembratriene-13R(α),15R(α),16-triol]
- viability percentage of Raji cells (indicator cells) (Raji cells; x 10 mol ratio/TPA): > 80%
- viability percentage of Raji cells (indicator cells) (Raji cells; x 100 mol ratio/TPA): > 80%
- viability percentage of Raji cells (indicator cells) (Raji cells; x 500 mol ratio/TPA): > 80%
- viability percentage of Raji cells (indicator cells) (Raji cells; [3]): 60%
- EBV-EA induction, percentage relative to the positive control value (100%) ([2]; x 10 mol ratio/TPA): 92.6%
- EBV-EA induction, percentage relative to the positive control value (100%) ([2]; x 100 mol ratio/TPA): 72.9%
- EBV-EA induction, percentage relative to the positive control value (100%) ([2]; x 500 mol ratio/TPA): 54.2%
- EBV-EA induction, percentage relative to the positive control value (100%) [2, 3]: 5.7%

Structure (SMILES): C/C1=C\C=C(\C(C)(O)CO)CC(=O)/C(C)=C/CCC2(C)OC2CC1 (stereo not drawn) [Compound 14, 7,8-Epoxy-13-oxo-1,3,11-cembratriene-15R(α),16-diol]
- viability percentage of Raji cells (indicator cells) (Raji cells; x 10 mol ratio/TPA): > 80%
- viability percentage of Raji cells (indicator cells) (Raji cells; x 100 mol ratio/TPA): > 80%
- viability percentage of Raji cells (indicator cells) (Raji cells; x 500 mol ratio/TPA): > 80%
- viability percentage of Raji cells (indicator cells) (Raji cells; [3]): 60%
- EBV-EA induction, percentage relative to the positive control value (100%) ([2]; x 10 mol ratio/TPA): 94.0%
- EBV-EA induction, percentage relative to the positive control value (100%) ([2]; x 100 mol ratio/TPA): 75.1%
- EBV-EA induction, percentage relative to the positive control value (100%) ([2]; x 500 mol ratio/TPA): 56.7%
- EBV-EA induction, percentage relative to the positive control value (100%) [2, 3]: 8.3%

Structure (SMILES): C/C1=C\C=C(\C(C)(O)CO)CC/C(C=O)=C/CCC2(C)OC2CC1 (stereo not drawn) [Compound 15, 7,8-Epoxy-1,3,11-cembratriene-15R(α),16-diol-20-carboxyaldehyde]
- viability percentage of Raji cells (indicator cells) (Raji cells; x 10 mol ratio/TPA): > 80%
- viability percentage of Raji cells (indicator cells) (Raji cells; x 100 mol ratio/TPA): > 80%
- viability percentage of Raji cells (indicator cells) (Raji cells; x 500 mol ratio/TPA): > 80%
- viability percentage of Raji cells (indicator cells) (Raji cells; [3]): 60%
- EBV-EA induction, percentage relative to the positive control value (100%) ([2]; x 10 mol ratio/TPA): 90.6%
- EBV-EA induction, percentage relative to the positive control value (100%) ([2]; x 100 mol ratio/TPA): 71.3%
- EBV-EA induction, percentage relative to the positive control value (100%) ([2]; x 500 mol ratio/TPA): 52.4%
- EBV-EA induction, percentage relative to the positive control value (100%) [2, 3]: 3.6%

Structure (SMILES): C/C1=C\C=C(\C(C)C)[C@@H](O)C/C(C)=C/CC/C(C)=C/CC1 [Sarcophytol-A, sarcophytol A, reference compound]
- viability percentage of Raji cells (indicator cells) (Raji cells; x 10 mol ratio/TPA): > 80%
- viability percentage of Raji cells (indicator cells) (Raji cells; x 100 mol ratio/TPA): > 80%
- viability percentage of Raji cells (indicator cells) (Raji cells; x 500 mol ratio/TPA): > 80%
- viability percentage of Raji cells (indicator cells) (Raji cells; [3]): 50%
- inhibition of EBV-EA activation induced by TPA [2]: 88%
- EBV-EA induction, percentage relative to the positive control value (100%) ([2]; x 10 mol ratio/TPA): 97.3%
- EBV-EA induction, percentage relative to the positive control value (100%) ([2]; x 100 mol ratio/TPA): 79.1%
- EBV-EA induction, percentage relative to the positive control value (100%) ([2]; x 500 mol ratio/TPA): 60.4%
- EBV-EA induction, percentage relative to the positive control value (100%) [2, 3]: 11.7%
